Test results: PubChem BioAssay (NCI)
Several values for one entry are separate records, joined by “and”; a condition that tells them apart may be missing. Equal values may be shown once.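 Five compound concentrations were applied to cells in 96-well plates for 48 hours; endpoints were derived by simple linear interpolation of the resulting dose-response curve. GI50 marks 50% less growth. At the TGI there is no net growth.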

What was measured:
Test in all cases: NCI-60 cell line screen, 48 h
BT-549 breast = test system: BT-549 breast
UO-31 renal = test system: UO-31 renal
NCI-H23 lung = test system: NCI-H23 lung
MDA-MB-435 = test system: MDA-MB-435
A498 renal = test system: A498 renal
LOX IMVI melanoma = test system: LOX IMVI melanoma
NCI/ADR-RES ovarian = test system: NCI/ADR-RES ovarian
RPMI-8226 leukemia = test system: RPMI-8226 leukemia
MCF7 breast = test system: MCF7 breast
UACC-257 melanoma = test system: UACC-257 melanoma

Row | Structure (SMILES) | GI50 (BT-549 breast) | TGI (BT-549 breast) | GI50 (UO-31 renal) | TGI (UO-31 renal) | GI50 (NCI-H23 lung) | TGI (NCI-H23 lung) | GI50 (MDA-MB-435) | TGI (MDA-MB-435) | GI50 (A498 renal) | TGI (A498 renal) | GI50 (LOX IMVI melanoma) | TGI (LOX IMVI melanoma) | GI50 (NCI/ADR-RES ovarian) | TGI (NCI/ADR-RES ovarian) | GI50 (RPMI-8226 leukemia) | TGI (RPMI-8226 leukemia) | GI50 (MCF7 breast) | TGI (MCF7 breast) | GI50 (UACC-257 melanoma) | TGI (UACC-257 melanoma)
1 | N#CN1CCC[C@H]1C(=O)N1CCc2c(-c3[nH]nc4ncccc34)cccc21 | < 0.01 µM | 0.0993 µM | 0.0431 µM | 5.11 µM | < 0.01 µM | 17.3 µM | < 0.01 µM | < 0.01 µM | < 0.0114 µM | 0.148 µM | < 0.01 µM | 10.6 µM | 0.0103 µM | > 31.7 µM | < 0.01 µM | 7.47 µM | < 0.01 µM | 11 µM | < 0.01 µM | 14.5 µM
2 | CCOC(=O)C1=C(C)NC2SC(=O)/C(=C\c3ccccc3)N2C1c1ccccc1 (stereo unspecified) | > 100 µM | > 100 µM | > 100 µM | > 100 µM | > 100 µM | > 100 µM | > 100 µM | > 100 µM | > 100 µM | > 100 µM | > 100 µM | > 100 µM | > 100 µM | > 100 µM | 33.5 µM | > 100 µM | > 100 µM | > 100 µM | > 100 µM | > 100 µM
3 | CCC1CC(=O)N(SCC(N)C(=O)O)C1=O (stereo unspecified) |  | > 100 µM |  | > 100 µM |  | > 100 µM |  | > 100 µM |  | > 100 µM |  | > 100 µM |  | > 100 µM |  | > 100 µM |  | > 100 µM |  | > 100 µM
4 | OC(COc1cccc2ccccc12)CN1CCN(c2ccccc2)CC1 (stereo unspecified) | 17.9 µM | 32.2 µM | 5.94 µM | 20.4 µM | 15.9 µM | 31.9 µM | 15.5 µM | 30.5 µM | 13.5 µM | 26.4 µM | 15.8 µM | 31.1 µM | 15.4 µM | 30.4 µM | 17 µM | 42.9 µM | 17.3 µM | 31.9 µM | 16 µM | 30.1 µM
5 | O=C1/C(=C/c2ccccc2)CCC/C1=C\c1ccccc1 |  | 10.9 µM and 24 µM | 6.04 µM and 12.5 µM | 11 µM and 32.3 µM and 28 µM | 6.88 µM | 12.3 µM and 21.9 µM and 36.4 µM | 2.71 µM | 11 µM and 14.1 µM |  | 29.8 µM and 29.2 µM | 3.83 µM and 1.52 µM | 8.65 µM and 5.92 µM and 3.64 µM | 17.5 µM | 17.1 µM and 95.5 µM | 2.89 µM and 2.23 µM | 36.5 µM and > 20.1 µM and 5.89 µM | 3.46 µM | 12.4 µM and 21 µM | 6.3 µM and 13.1 µM | 11.7 µM and 39.8 µM and 33.3 µM
6 | O=C(c1cccs1)c1c(C(F)(F)F)n([O-])c2ccc(F)cc2[n+]1=O | 0.815 µM | 2.6 µM | 1.3 µM | 2.58 µM | 1.22 µM | 2.6 µM | 1.31 µM | 2.87 µM | 1.95 µM | 4.08 µM | 0.971 µM | 2.67 µM | 2.36 µM | 6.33 µM | 0.188 µM | 0.485 µM | 0.454 µM | 3.12 µM | 1.53 µM | 2.91 µM
7 | Cc1cc(-c2nc(-c3ccc(OC(F)(F)F)cc3)no2)nn1Cc1ccnc(N2CCN(C3CC3)CC2)c1 |  | > 52.6 µM | 4.4 µM | > 100 µM | < 0.01 µM | > 86.3 µM | 2.34 µM | > 59 µM | 0.482 µM | > 100 µM | 0.272 µM | > 45.6 µM | 0.726 µM | > 100 µM | 0.582 µM | > 58.3 µM |  | > 42.7 µM | 2.84 µM | > 55.4 µM
8 | N#Cc1c(NC(=O)CN2CCOCC2)sc2c1CCCC2 | > 25 µM | > 25 µM | > 25 µM | > 25 µM | > 25 µM | > 25 µM | > 25 µM | > 25 µM | 3.2 µM | > 25 µM | > 25 µM | > 25 µM | > 25 µM | > 25 µM | > 25 µM | > 25 µM | > 25 µM | > 25 µM | > 25 µM | > 25 µM
9 | COc1cc(C2CC(c3cc(C)ccc3C)=NN2c2ccc(S(=O)(=O)NC(=O)NCc3ccccc3)cc2)cc(OC)c1OC (stereo unspecified) | 3.08 µM | 12.6 µM | 3.56 µM | 15.6 µM | 3.37 µM | 19.5 µM | 2.27 µM | 5.25 µM | 3.09 µM | 9.03 µM | 3.79 µM | > 100 µM | 4.18 µM | 31.7 µM | 2.8 µM | 9.11 µM | 2.58 µM | 9.56 µM | 3.53 µM | 20.1 µM
10 | C/C(=C\CCc1ccoc1)CC/C=C(\C)CCCN1CCC(CO)CC1 | 2.77 µM | 12.1 µM | 3.85 µM | 16.7 µM | 3.78 µM | 14.7 µM | 3.07 µM | 10.8 µM | 1.96 µM | 5.96 µM | 1.81 µM | 3.47 µM | 3.69 µM | 14.6 µM | 2.03 µM | 4.48 µM | 3.24 µM | 11.6 µM | 2.16 µM | 5.12 µM
11 | COc1cc([C@@H]2c3cc4c(cc3[C@H](O)[C@H]3COC(=O)[C@H]23)OCO4)cc(OC)c1OC | < 0.01 µM |  | < 0.005 µM | > 100 µM and 50 µM and 42.7 µM | < 0.01 µM | > 100 µM and 50 µM and > 7.43 µM | < 0.01 µM | < 0.005 µM | < 0.01 µM |  | < 0.01 µM | > 100 µM and 50 µM |  | < 0.005 µM | < 0.01 µM |  | < 0.01 µM | > 100 µM and 10.3 µM |  | > 100 µM and 50 µM
12 | CC[C@H](C)n1cc(C)c2c(C(=O)NCc3c(C)cc(C)[nH]c3=O)cc(-c3ccc(N4CCNCC4)nc3)cc21 | 15.4 µM and 13.5 µM | 30.5 µM and 27.7 µM | 15.3 µM and 12.9 µM | 29.6 µM and 27.3 µM | 18 µM and 17.6 µM | 34.3 µM and 34 µM | 10 µM and 5.12 µM | 21.6 µM and 16.3 µM | 15.4 µM and 12.6 µM | 30 µM and 26.9 µM | 8.89 µM and 6.3 µM | 21.8 µM and 19.4 µM | 35.1 µM and 17.6 µM | > 100 µM and 33.7 µM | 11.4 µM and 11.7 µM | 28 µM and 28.9 µM | 10.4 µM and 6.88 µM | 24.9 µM and 21.8 µM | 16.5 µM and 14.8 µM | 31.5 µM and 29.5 µM
13 | CC[CH2][Sn]([Cl])([Cl])[CH2]CC | 7.87 µM | 20.5 µM | 4.47 µM | 19.5 µM | 9.13 µM | 22 µM | 12.5 µM | 26.9 µM | 1.54 µM | 3.62 µM | 2.8 µM | 11.4 µM | 15.8 µM | 30.7 µM | 2.03 µM | 7.77 µM | 3.27 µM | 16.5 µM | 4.59 µM | 19.2 µM
